{"source": "ChEMBL document CHEMBL1128100", "about": "“Synthesis and evaluation of novel daunomycin-phosphate-sulfate --glucuronide and --glucoside prodrugs for application in adept” (Bioorg Med Chem Lett, 1995)", "key": {"MCF7": {"tested_on": "MCF7", "assay": "Antiproliferative activity of compound was tested against mammary carcinoma (MCF-7) human tumor cells", "assay_type": "functional, cell-based"}, "EVSA-T": {"tested_on": "EVSA-T", "assay": "Antiproliferative activity of compound was tested against mammary carcinoma (EVSAT) human tumor cells", "assay_type": "functional, cell-based"}, "M19-MEL": {"tested_on": "M19-MEL", "assay": "Antiproliferative activity of compound was tested against melanoma (M-19) human tumor cells", "assay_type": "functional, cell-based"}, "IGROV-1": {"tested_on": "IGROV-1", "assay": "Antiproliferative activity of compound was tested against ovarian carcinoma (IGROV) human tumor cells", "assay_type": "functional, cell-based"}, "beta-glucuronidase": {"tested_on": "beta-glucuronidase", "assay": "Compound was tested for enzyme activation with 0.03 U/mL beta-glucuronidase by measuring its half-life", "conditions": "beta-glucuronidase (isolated enzyme)"}, "A498": {"tested_on": "A498", "assay": "Antiproliferative activity of compound was tested against renal cancer (A-498) human tumor cells", "assay_type": "functional, cell-based"}, "beta-glucosidase": {"tested_on": "beta-glucosidase", "assay": "Compound was tested for enzyme activation with 0.3 U/mL beta-glucosidase by measuring its half-life", "conditions": "beta-glucosidase (isolated enzyme)"}, "WiDr": {"tested_on": "WiDr", "assay": "Antiproliferative activity of compound was tested against colon carcinoma (WiDr) human tumor cells", "assay_type": "functional, cell-based"}, "A204": {"tested_on": "A204", "assay": "Antiproliferative activity of compound was tested against rhabdomyosarcoma (A-204) human tumor cells", "assay_type": "functional, cell-based"}, "T-24": {"tested_on": "T-24", "assay": "Antiproliferative activity of compound was tested against bladder carcinoma (T-24) human tumor cells", "assay_type": "functional, cell-based"}, "IGR-37 cell line": {"tested_on": "IGR-37 cell line", "assay": "Antiproliferative activity of compound was tested against melanoma (IgR-37) human tumor cells", "assay_type": "functional, cell-based"}}, "note": "Where a name gives a salt, the structure may show the parent alone.", "data": [{"smiles": "COc1cccc2c1C(=O)c1c(O)c3c(c(O)c1C2=O)C[C@@](O)(C(C)=O)C[C@@H]3O[C@H]1C[C@@H](NC(=O)O[C@@H]2O[C@@H](C(=O)[O-])[C@@H](O)[C@H](O)[C@@H]2O)[C@H](O)[C@H](C)O1.[Na+]", "values": [{"measurement": "IC50", "setting": "MCF7; mcf7", "value": 11200, "unit": "µM"}, {"measurement": "IC50", "setting": "EVSA-T; evsa-t", "value": 13500, "unit": "µM"}, {"measurement": "IC50", "setting": "M19-MEL; m19-mel", "value": 15800, "unit": "µM"}, {"measurement": "IC50", "setting": "IGROV-1; igrov-1", "value": 36900, "unit": "µM"}, {"measurement": "half-life", "setting": "beta-glucuronidase", "value": 137, "unit": "h"}, {"measurement": "IC50", "setting": "A498; a498", "value": 12100, "unit": "µM"}]}, {"smiles": "COc1cccc2c1C(=O)c1c(O)c3c(c(O)c1C2=O)C[C@@](O)(C(C)=O)C[C@@H]3O[C@H]1C[C@@H](NC(=O)O[C@@H]2O[C@@H](C(=O)O)[C@@H](O)[C@H](O)[C@@H]2O)[C@H](O)[C@H](C)O1", "values": [{"measurement": "IC50", "setting": "MCF7; mcf7", "value": 125, "unit": "µM"}, {"measurement": "IC50", "setting": "EVSA-T; evsa-t", "value": 280, "unit": "µM"}, {"measurement": "IC50", "setting": "M19-MEL; m19-mel", "value": 200, "unit": "µM"}, {"measurement": "half-life", "setting": "beta-glucosidase", "value": "> 133", "unit": "h"}, {"measurement": "IC50", "setting": "IGROV-1; igrov-1", "value": 520, "unit": "µM"}, {"measurement": "IC50", "setting": "A498; a498", "value": 250, "unit": "µM"}, {"measurement": "IC50", "setting": "WiDr; widr", "value": 370, "unit": "µM"}]}, {"smiles": "COc1cccc2c1C(=O)c1c(O)c3c(c(O)c1C2=O)C[C@@](O)(C(C)=O)C[C@@H]3O[C@H]1C[C@@H](N)[C@H](OS(=O)(=O)O)[C@H](C)O1", "values": [{"measurement": "IC50", "setting": "MCF7; Homo sapiens, MCF7", "value": 870, "unit": "µM"}, {"measurement": "IC50", "setting": "A204", "value": 1.3, "unit": "µM"}, {"measurement": "IC50", "setting": "T-24", "value": 5500, "unit": "µM"}, {"measurement": "IC50", "setting": "IGR-37 cell line", "value": 3000, "unit": "µM"}]}, {"smiles": "COc1cccc2c1C(=O)c1c(O)c3c(c(O)c1C2=O)C[C@@](O)(C(C)=O)C[C@@H]3O[C@H]1C[C@@H](NS(=O)(=O)O)[C@H](O)[C@H](C)O1", "values": [{"measurement": "IC50", "setting": "MCF7; Homo sapiens, MCF7", "value": 10400, "unit": "µM"}, {"measurement": "IC50", "setting": "A204", "value": 4.9, "unit": "µM"}]}, {"smiles": "COc1cccc2c1C(=O)c1c(O)c3c(c(O)c1C2=O)C[C@@](O)(C(C)=O)C[C@@H]3O[C@H]1C[C@@H](NP(=O)(O)O)[C@H](O)[C@H](C)O1", "values": [{"measurement": "IC50", "setting": "MCF7; Homo sapiens, MCF7", "value": 370, "unit": "µM"}, {"measurement": "IC50", "setting": "A204", "value": 17, "unit": "µM"}, {"measurement": "IC50", "setting": "T-24", "value": 2, "unit": "µM"}, {"measurement": "IC50", "setting": "WiDr; Homo sapiens, WiDr", "value": 10, "unit": "µM"}, {"measurement": "IC50", "setting": "IGR-37 cell line", "value": 96, "unit": "µM"}]}, {"smiles": "COc1cccc2c1C(=O)c1c(O)c3c(c(O)c1C2=O)C[C@@](O)(C(C)=O)C[C@@H]3O[C@H]1C[C@@H](N)[C@H](OP(=O)(O)O)[C@H](C)O1", "values": [{"measurement": "IC50", "setting": "MCF7; Homo sapiens, MCF7", "value": 89, "unit": "µM"}, {"measurement": "IC50", "setting": "A204", "value": 17, "unit": "µM"}, {"measurement": "IC50", "setting": "T-24", "value": 3, "unit": "µM"}, {"measurement": "IC50", "setting": "WiDr; Homo sapiens, WiDr", "value": 58, "unit": "µM"}, {"measurement": "IC50", "setting": "IGR-37 cell line", "value": 45, "unit": "µM"}]}, {"smiles": "COc1cccc2c1C(=O)c1c(O)c3c(c(O)c1C2=O)C[C@@](O)(C(C)=O)C[C@@H]3O[C@H]1C[C@H](N)[C@H](O)[C@H](C)O1", "note": "[DAUNORUBICIN HYDROCHLORIDE]", "values": [{"measurement": "IC50", "setting": "MCF7; Homo sapiens, MCF7", "value": 2, "unit": "µM"}, {"measurement": "IC50", "setting": "EVSA-T; Homo sapiens, EVSA-T", "value": 2, "unit": "µM"}, {"measurement": "IC50", "setting": "M19-MEL; Homo sapiens, M19-MEL", "value": 2, "unit": "µM"}, {"measurement": "IC50", "setting": "A204", "value": 3, "unit": "µM"}, {"measurement": "IC50", "setting": "T-24", "value": 2, "unit": "µM"}, {"measurement": "IC50", "setting": "IGROV-1; Homo sapiens, IGROV-1", "value": 18, "unit": "µM"}, {"measurement": "IC50", "setting": "A498; Homo sapiens, A498", "value": 3, "unit": "µM"}, {"measurement": "IC50", "setting": "WiDr; Homo sapiens, WiDr", "value": 7, "unit": "µM"}, {"measurement": "IC50", "setting": "IGR-37 cell line", "value": 11, "unit": "µM"}]}]}
